Here are results for one compound from publication PMC12606464, “Investigating NFE2L1 activators for targeted protein aggregate clearance: a follow-up study” (RSC Medicinal Chemistry, 2025).

Holding throughout (assay type): cell-based, human
Data set [1] concerns NFE2L1 pathway. Nature of the data set: 3×PSMA4-ARE-LUC reporter with or without N-acetyl-L-cysteine (NAC). The settings on record: HEK293, 5 μM, 16 h. The text has this:
We next examined whether the selected RUN compounds activate the NFE2L1 pathway in a stress-independent manner, while preserving normal ubiquitin-dependent proteasomal degradation. This distinction is crucial, as the therapeutic benefit of NFE2L1 activation lies in its ability to alleviate proteotoxic stress and target disease-related proteins for degradation without compromising normal proteostasis. To assess this, U2OS cells stably expressing the short-lived fluorescent reporter Ub-G76V-GFP were treated with various concentrations of RUN compounds. […] We also examined whether compound-induced activation of NFE2L1 could be attributed to the generation of reactive oxygen species (ROS). To test this, the 3×PSMA4-ARE-LUC reporter assay was performed in the presence or absence of the antioxidant N-acetyl-L-cysteine (NAC). A decrease in reporter activity upon NAC treatment would indicate pathway activation through oxidative stress. […]
To determine whether RUN compounds activate the NFE2L1 pathway via reactive oxygen species (ROS) generation or through Keap1-NRF2 pathway crosstalk, we used the 3xPSMA4-ARE-LUC dual reporter assay in HEK293 cells. […] A reduction in luminescence signal upon NAC co-treatment would indicate that the compound activates the reporter via ROS-mediated mechanism or Keap1-NRF2-dependent oxidative/electrophilic stress. […]

Data set [2] concerns NFE2L1 pathway. Nature of the data set: 3×PSMA4-ARE-LUC dual luciferase reporter assay in HEK293 cells. The conditions noted are these: Homo sapiens; 5 μM, 16 h, HEK293, luminescence relative to DMSO-treated cells; read-out: NFE2L1 activation [5 μM]. The source says:
In our previous work,[43] we developed a library of NFE2L1 stimulators using a cell-based luciferase reporter assay. This system was based on three tandem copies of the antioxidant response element (ARE) derived from the NFE2L1 target gene proteasome subunit alpha type-4 (3xPSMA4, PSMA4-ARE-LUC). It was designed to detect the proteasome “bounce-back” response induced by proteasome inhibitors such as MG132 or bortezomib.[22,43,45,46] The reporter assay was adapted to a 384-well format and used to evaluate a new set of RUN compounds designed around the structural framework of the RUN-47 activator. We focused on identifying compounds that increased the 3×PSMA4-ARE-LUC signal (Fig. 1A), while simultaneously assessing cytotoxicity (see the SI, Fig. S2). […] In contrast, thiourea- and urea-containing derivatives generally produced only weak to intermediate responses, rarely exceeding a fold change of 7.
Fig. 1 (A) Targeted library screening of RUN compounds using the 3×PSMA4-ARE-LUC dual reporter assay in HEK293 cells. Cells were exposed to RUN compounds (5 μM) for 16 hours, and luciferase activity was measured. Data are presented as the mean ± SD from three independent experiments (n = 3). Results are shown as a fold change in luminescence relative to DMSO-treated cells. Selected hit compounds are highlighted in distinct colours. (B) RUN-89 specifically activates the NFE2L1 pathway. The DDI2 knockout (KO) and parental (WT) HCT116 cells were transfected with the 3×PSMA4-ARE-LUC reporter and treated with 0.5 μM bortezomib (BTZ) and 5 μM RUN-89 for 16 hours. Data are presented as the Geomean ± GeoSD of three independent experiments (n = 3). Statistical analysis was performed on log2-transformed values using two-way repeated-measures ANOVA followed by Šídak's multiple comparison test. (C) RUN-89 selectively triggers downstream signaling events associated with NFE2L1 gene expression. HEK293 cells were transfected with lipid nanoparticles (LNPs) carrying siRNAs targeting NFE2L1 or NFE2L2. LNPs formulated with non-targeting siRNA served as a negative control. Following 24 hours of incubation, cells were treated with 7.5 μM RUN-89 or DMSO (vehicle) for an additional 16 hours. Expression of the proteasomal subunit gene PSMC4 was then quantified by RT-qPCR. Data are shown as the Geomean ± GeoSD from three independent biological replicates (n = 3). Log2-transformed data were analyzed using two-way repeated-measures ANOVA with the Geisser–Greenhouse correction, followed by Tukey's multiple comparison test with individual variances computed for each comparison. Additional results for NFE2L1, NFE2L2, PSMB7, and PSMD12 are presented in SI Fig. S10.
Figure S1: Concentration–response of luciferase cell-based assay (PSMA4-ARE-luc2P reporter) on treatment with RUN-81, RUN-89, and RUN-94. Concentration is plotted on the X-axis. Dose–response relationships were analyzed using a four-parameter logistic curve (4PL), or a bell-shaped dose-response curve, both with weighting 1/Y^2. Dotted lines represent 95% confidence bands. Calculated EC₅₀ values, curve parameters, and asymmetrical confidence intervals are summarized in the accompanying table . Data are presented as mean ± SD from four independent experiments (n=4).
(§1) 2 Biology Experimental Procedures
(§2) Safety statement: No unexpected or unusually high safety hazards were encountered. […]
Most of the cell lines were cultured in Dulbecco's Modified Eagle Medium (DMEM) enriched with 10% fetal bovine serum (FBS) and 2 mM L-glutamine, under standard conditions of 37 °C with 5% CO₂. DNA transfection was performed with Lipofectamine 2000, following the manufacturer's instructions. Transgenic cells were then selected with either G418 (400 µg/mL) or hygromycin B (450 µg/mL), based on the selection marker encoded by the plasmid used. Cell viability was evaluated using the […]
On the technique in general: In a reporter assay the amount or activity of a reporter protein is the signal.

Data set [3] has as its system HEK293 cells. Kind of data set: alamarBlue cytotoxicity assessment in HEK293 cells. The conditions noted are these: HEK293, alamarBlue, 16 h; concentration not given. How it is done:
Figure S2: Concentration-dependent cytotoxicity assessment of RUN compounds.
HEK293 cells were treated for 16 hours with increasing concentrations of RUN compounds (1.25 µM; 2.5 µM; 5; 7.5 and 10 µM) or DMSO (negative control). Cell viability was determined using the alamarBlue assay following the protocol of Riss.(1) Data are presented as means ± SD from three independent experiments (n = 3). Statistical analysis was done using repeated measures one-way ANOVA with Geisser–Greenhouse correction, followed by Dunnett’s multiple comparisons test. *p<0.05. Detailed results of the analysis are shown in […]
(1 picture or pasted object on this page, not shown here)
as §1, §2
Cell lines were sourced from the ATCC (USA) and/or ECACC (UK), namely HCT116 (human colorectal carcinoma), ATCC CCL-247 (RRID:CVCL_0291), HEK-293 (human embryonic kidney), ATCC CRL-1573 (RRID:CVCL_0045), SH-SY5Y (human neuroblastoma), ATCC CRL-2266 (RRID:CVCL_0019). The characteristics of DDI2 knockout cells derived from HCT116 cells have been described previously (Sedlacek et al., 2025). All cell lines were tested for mycoplasma contamination. Most of the cell lines were cultured in Dulbecco's Modified Eagle Medium (DMEM) enriched with 10% fetal bovine serum (FBS) and 2 mM L-glutamine, under standard conditions of 37 °C with 5% CO₂. DNA transfection was performed with Lipofectamine 2000, following the manufacturer's instructions. Transgenic cells were then selected with either G418 (400 µg/mL) or hygromycin B (450 µg/mL), based on the selection marker encoded by the plasmid used. […]
In general terms: Resazurin is reduced to fluorescent resorufin, in cell work by metabolically active cells.

SMILES strings stand for the structures.

Turning to `COc1ccc(/C=C2\CNC/C(=C\c3ccc(OC)c(OC)c3)C2=O)cc1OC` [RUN-84], the “NFE2L1 reporter activation in the presence of NAC” value in data set [1] is recorded as “reduction in activation”. The fold induction at 5 µM in data set [2] is 4. In data set [3], the “Tox [% of ctrl.]” value is 73% of ctrl.
